The source made the active and inactive calls. No cut-off for these calls is given here.
Legend:
Type in all cases: cell-based
[1] = molecular target: T1, Small conductance calcium-activated potassium channel protein 3 (Homo sapiens, UniProt Q9UGI6); assay: Inhibition of Kca2.3 channel expressed in HEK293 cells by thallium flux assay
[2] = molecular target: T1, Small conductance calcium-activated potassium channel protein 3; assay: Inhibition of Kca2.3 channel expressed in HEK293 cells at 30 uM by thallium flux assay
[3] = molecular target: T1, Small conductance calcium-activated potassium channel protein 3; assay: Displacement of [125I]apamin from Kca2.3 channel expressed in HEK293 cells by scintillation proximity assay
[4] = molecular target: T1, Small conductance calcium-activated potassium channel protein 3; assay: Inhibition of Kca2.3 channel expressed in HEK293 cells by electrophysiology assay
[5] = molecular target: Small conductance calcium-activated potassium channel protein 1 (Homo sapiens, UniProt Q92952); assay: Inhibition of Kca2.1 channel expressed in HEK293 cells by thallium flux assay
Chain of Small conductance calcium-activated potassium channel protein 1 (Q92952 whole entry): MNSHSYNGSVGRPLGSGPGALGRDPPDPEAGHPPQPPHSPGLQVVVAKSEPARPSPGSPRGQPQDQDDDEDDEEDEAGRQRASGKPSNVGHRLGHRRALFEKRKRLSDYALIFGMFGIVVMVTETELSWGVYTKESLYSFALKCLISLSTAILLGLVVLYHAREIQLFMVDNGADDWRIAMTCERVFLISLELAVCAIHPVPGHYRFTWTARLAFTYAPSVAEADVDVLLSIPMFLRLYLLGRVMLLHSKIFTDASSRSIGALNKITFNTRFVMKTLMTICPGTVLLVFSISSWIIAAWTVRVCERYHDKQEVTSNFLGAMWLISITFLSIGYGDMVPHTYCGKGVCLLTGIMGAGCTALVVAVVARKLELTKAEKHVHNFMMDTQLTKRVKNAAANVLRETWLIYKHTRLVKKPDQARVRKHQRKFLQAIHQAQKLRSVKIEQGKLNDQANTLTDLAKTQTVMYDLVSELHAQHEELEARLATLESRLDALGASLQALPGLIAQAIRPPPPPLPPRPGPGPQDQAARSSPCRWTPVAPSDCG

[6] = molecular target: Small conductance calcium-activated potassium channel protein 2 (Homo sapiens, UniProt Q9H2S1); assay: Inhibition of Kca2.2 channel expressed in HEK293 cells by thallium flux assay
Chain of Small conductance calcium-activated potassium channel protein 2 (Q9H2S1 whole entry): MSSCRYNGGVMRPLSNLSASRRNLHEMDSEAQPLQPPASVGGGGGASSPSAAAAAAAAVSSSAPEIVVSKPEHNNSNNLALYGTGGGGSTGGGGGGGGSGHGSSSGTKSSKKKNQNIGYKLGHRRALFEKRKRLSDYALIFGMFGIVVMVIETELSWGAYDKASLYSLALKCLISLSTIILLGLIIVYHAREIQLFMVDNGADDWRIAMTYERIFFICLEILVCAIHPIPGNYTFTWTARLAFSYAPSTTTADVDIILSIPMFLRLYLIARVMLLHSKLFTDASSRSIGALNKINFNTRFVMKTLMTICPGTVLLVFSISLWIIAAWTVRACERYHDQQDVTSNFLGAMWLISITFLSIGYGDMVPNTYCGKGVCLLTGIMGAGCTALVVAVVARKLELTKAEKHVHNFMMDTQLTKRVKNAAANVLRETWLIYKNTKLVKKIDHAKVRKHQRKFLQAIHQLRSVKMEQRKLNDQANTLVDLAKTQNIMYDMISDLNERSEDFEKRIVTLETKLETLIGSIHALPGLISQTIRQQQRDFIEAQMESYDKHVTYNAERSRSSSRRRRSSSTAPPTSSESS

T1 sequence (Q9UGI6 whole entry): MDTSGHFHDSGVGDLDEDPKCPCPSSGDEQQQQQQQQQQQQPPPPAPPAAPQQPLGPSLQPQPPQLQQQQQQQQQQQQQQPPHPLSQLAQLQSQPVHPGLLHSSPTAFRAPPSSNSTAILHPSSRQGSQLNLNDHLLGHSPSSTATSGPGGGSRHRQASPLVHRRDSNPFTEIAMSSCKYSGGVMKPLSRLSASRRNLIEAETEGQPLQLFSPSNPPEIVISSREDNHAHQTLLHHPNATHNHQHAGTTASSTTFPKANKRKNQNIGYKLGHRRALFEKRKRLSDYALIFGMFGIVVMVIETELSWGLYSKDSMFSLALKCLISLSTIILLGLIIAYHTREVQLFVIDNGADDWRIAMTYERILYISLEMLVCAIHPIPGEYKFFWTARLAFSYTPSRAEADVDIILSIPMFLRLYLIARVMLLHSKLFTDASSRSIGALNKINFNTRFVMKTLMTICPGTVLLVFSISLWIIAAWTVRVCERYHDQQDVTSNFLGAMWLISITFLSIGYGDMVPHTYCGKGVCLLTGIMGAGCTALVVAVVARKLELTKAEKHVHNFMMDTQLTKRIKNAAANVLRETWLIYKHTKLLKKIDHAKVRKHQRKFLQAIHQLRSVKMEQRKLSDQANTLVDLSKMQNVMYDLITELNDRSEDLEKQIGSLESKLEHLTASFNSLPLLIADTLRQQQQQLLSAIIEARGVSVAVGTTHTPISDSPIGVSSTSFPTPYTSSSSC

SMILES | IC50 [1] [µM] | inhibition [2] [%] | other results
Cc1ccccc1CNc1cc(Cl)nc2ccnn12 | 14.6 | 75 | 
Clc1cc(NCc2cccs2)n2nccc2n1 | 0.35 | 105 | Activity [3]: inactive; IC50 [4]: 0.58 µM; IC50 [5]: 0.3 µM; IC50 [6]: 0.53 µM
FC(F)(F)Oc1ccccc1CNc1cc(Cl)nc2ccnn12 | 10 | 87 | 
Clc1cc(NCc2ccncc2)n2nccc2n1 |  |  | Activity [1]: inactive
Clc1ccc(CNc2cc(Cl)nc3ccnn23)cc1 | > 30 | 30 | 
Clc1cc(Cl)cc(CNc2cc(Cl)nc3ccnn23)c1 | > 30 | 43 | 
Clc1cc(NCc2ccccc2)n2nccc2n1 | 1.1 | 113 | IC50 [4]: 1.6 µM; IC50 [5]: 1.19 µM; IC50 [6]: 1.1 µM
O=[N+]([O-])c1cccc(CNc2cc(Cl)nc3ccnn23)c1 | 7.9 | 96 | 
Clc1cc(NCc2ccc(Oc3ccccc3)cc2)n2nccc2n1 | > 30 | 23 | 
FC(F)(F)Oc1cccc(CNc2cc(Cl)nc3ccnn23)c1 | 11 | 71 | 
FC(F)(F)Oc1ccc(CNc2cc(Cl)nc3ccnn23)cc1 | 15.4 | 62 | 
FC(F)(F)c1cccc(CNc2cc(Cl)nc3ccnn23)c1 | 14.6 | 80 | 
Clc1cc(NC(Cc2ccccc2)c2ccccc2)n2nccc2n1 (stereo unspecified) | 7.5 |  | 
Clc1cc(NCc2ccc(Cl)c(Cl)c2)n2nccc2n1 | > 30 | 25 | 
Cc1ccc(CNc2cc(Cl)nc3ccnn23)cc1 | > 30 | 46 | 
Clc1cc(NCc2ccccc2Cl)n2nccc2n1 | 19.1 | 62 | 
C[C@H](Nc1cc(Cl)nc2ccnn12)c1ccccc1 |  |  | Activity [1]: inactive
Clc1cccc(CNc2cc(Cl)nc3ccnn23)c1 | 5.2 | 113 | 
FC(F)(F)c1ccc(CNc2cc(Cl)nc3ccnn23)cc1 | > 30 | 43 | 
COc1ccccc1CNc1cc(Cl)nc2ccnn12 | 15.9 | 74 | 
C[C@@H](Nc1cc(Cl)nc2ccnn12)c1ccccc1 | 1 |  | 
FC(F)(F)c1ccccc1CNc1cc(Cl)nc2ccnn12 | > 30 | 50 | 
O=[N+]([O-])c1ccc(CNc2cc(Cl)nc3ccnn23)cc1 | > 30 | 25 | 
Cc1cccc(CNc2cc(Cl)nc3ccnn23)c1 | 10.7 | 91 | 

— ChEMBL document CHEMBL1152243, “Preliminary SAR studies on non-apamin-displacing 4-(aminomethylaryl)pyrrazolopyrimidine K(Ca) channel blockers” (Bioorg Med Chem Lett, 2008)
